Consider two compounds from patent US20190290694A1, “STABLY ENGINEREED PROTEASOME INHIBITOR RESISTANT IMMUNE CELLS FOR IMMUNOTHERAPY” (CELLECTIS, priority 2016, published 2019).

For assay [1], the system named is GECKO-transduced primary T-cells. The assay can be described thus: Puromycine resistance test of mock- and GECKO-transduced primary T-cells (viability by flow cytometry). The format is cell-based, human. Details: dose or concentration left out as unconfirmed. As to conditions: GECKO-transduced versus mock T-cells, 3 days, simultaneous activation/transduction, FIG. 5. The procedure: Peripheral blood mononuclear cells (PBMC) were obtained from healthy volunteer donors and T-lymphocytes were purified using the EasySep human T-cell enrichment kit (Stemcell Technologies). By contrast with the GECKO protocol described by Shalem et al., primary T-cells were activated and immediately transduced with the viral particles. The T-cells were first mixed with dynabeads (25 uL/10^6 T-cells) in Xvivo-15 media and then plated on 12 well plates coated by 30 ug/mL retronectin per well (iml of retronectin per well incubated 1 hour at 37° C. followed by a washing steps using 1 ml of PBS 2% FBS) in a total volume of 400 μL. The mixture was supplemented by either 200 μL of GECKO lentiviral particles or 200 μL of Xvivo-15 media and incubated 2H at 37° C. and 5% CO2. The mixture was then supplemented by 600 μL of Xvivo-15 media, 10% AB serum and 40 ng/mL IL2 and incubated overnight at 37° C. with 5% CO2. Cells were then washed with 1.5 ml of Xvivo-15 media and resuspended in Xvivo-15 media, 5% AB serum, 20 ng/mL IL-2 in 6 wells plate at 10^6 cells/mL.
3 days post transduction, cells were recovered and used to perform a puromycine resistance test. […] FIG. 2 illustrates the puromycine sensitivity pattern of mock- and GECKO-transduced primary T-cells determined by flow cytometry. […] Cells are then recovered, labeled using EFluor780 dye and analyzed by flow cytometry to determine their viability. […]
A general note: In flow cytometry, cells or beads pass a laser one at a time.

The subject of another assay is primary T cell. The assay can be described thus: Bortezomib dose response, viability of primary T cells by flow cytometry (live dead cell marker). In kind it is cell-based. As to conditions: Homo sapiens, cultured for 48h with bortezomib, FIG. 1A, read-out: EC50 of Bortezomib (cell depletion / viability). An excerpt:
(§1) Peripheral blood mononuclear cells (PBMC) were obtained from healthy volunteer donors as described by Schwartz J. et al. (Guidelines on the use of therapeutic apheresis in clinical practice-evidence-based approach from the Writing Committee of the American Society for Apheresis: the sixth special issue (2013) J Clin Apher. 28(3):145-284).
(§2) To investigate whether bortezomib treatment modify the survival of primary cells, frozen PBMCs were thawed and activated using Dynabeads human T activator CD3/CD28. 3 days after their activation, 1 million cells were transduced using a CD123 CAR (specific for CD123) at a MOI of 5. Cells were then immediately diluted in X-Vivo-15 media supplemented by 20 ng/ml IL-2 and 5% human serum AB and diluted at 1×10^6 cells/ml and kept in culture at 37° C. in the presence of 5% CO2. […] At the end of the culture cell viability was assessed by flow cytometry using a live dead cell marker.

Assay [2] has as its system primary CAR T-cell (CAR anti-CD123). The assay is described as follows: Bortezomib dose response, viability of primary CAR T-cells (CAR anti-CD123) by flow cytometry. In kind it is cell-based, human.
Description: as §1
To investigate whether bortezomib treatment modify the survival of primary cells, frozen PBMCs were thawed and activated using Dynabeads human T activator CD3/CD28. 3 days after their activation, 1 million cells were transduced using a CD123 CAR (specific for CD123) at a MOI of 5. Cells were then immediately diluted in X-Vivo-15 media supplemented by 20 ng/ml IL-2 and 5% human serum AB and diluted at 1×10^6 cells/ml and kept in culture at 37° C. in the presence of 5% CO2. 7 days later, T cells, CART cells and MOLM13 cells were cultured for 48h in the presence of bortezomib increasing doses of bortezomib ranging from 0 nM to […]. At the end of the culture cell viability was assessed by flow cytometry using a live dead cell marker.
To investigate whether overexpressing POMP, PSMB5 or mutated PSMB5 on CART cells confers resistance to bortezomib treatment, T-cells frozen PBMCs were thawed and activated using Dynabeads human T activator CD3/CD28. […] At the end of the culture cell viability was assessed by flow cytometry using a live dead cell marker.

For the next assay, the system named is MOLM13 cell line. The assay can be described thus: Bortezomib dose response, viability of MOLM13 cells by flow cytometry. The format is cell-based. As to conditions: Homo sapiens, MOLM-13, cultured for 48h with bortezomib, FIG. 1C, read-out: EC50 of Bortezomib (cell depletion / viability). How it is done: as §2
For assay [3], the system named is CART cells that express PSMB5. The assay can be described thus: Bortezomib dose response, viability of CART cells coexpressing PSMB5. The format is cell-based, human. As to conditions: CART cells that express PSMB5 as compared to WT CART cells and NT cells, 48h, FIG. 4. The procedure: (§3) To investigate whether overexpressing POMP, PSMB5 or mutated PSMB5 on CART cells confers resistance to bortezomib treatment, T-cells frozen PBMCs were thawed and activated using Dynabeads human T activator CD3/CD28. 3 days after their activation 1 million T-cells were transduced or not using the CD123 CAR and one of the ORF at a MOI of 5 for both lentiviral particles. Cells were then immediately diluted in X-Vivo-15 media supplemented by 20 ng/ml IL-2 and 5% human serum AB and diluted at 1×10^6 cells/ml and kept in culture at 37° C. in the presence of 5% CO2. 7 days later, T cells, CART cells and MOLM13 cells were cultured for 48h in the presence of increasing doses of bortezomib ranging from 0 to 100 μM. At the end of the culture cell viability was assessed by flow cytometry using a live dead cell marker.

The test system of assay [4] is CART cells that express mutated PSMB5. The assay can be described thus: Bortezomib dose response, viability of CART cells coexpressing mutated PSMB5. In kind it is cell-based, human. As to conditions: CART cells that express mutated PSMB5 as compared to WT CART cells and NT cells, 48h, FIG. 4. The procedure:
as §3

Consider `COc1ccc(C[C@H](N)C(=O)N[C@H]2[C@@H](O)[C@H](n3cnc4c(N(C)C)ncnc43)O[C@@H]2CO)cc1` [puromycine], for which the “puromycine sensitivity (viability frequency)” value in assay [1] is reported as “more resistance”.
Take `CC(C)C[C@H](NC(=O)[C@H](Cc1ccccc1)NC(=O)c1cnccn1)B(O)O` [bortezomib]: the EC50 in the assay on primary T cell is roughly 10 nM; in assay [2] (Homo sapiens, T-cell, primary CART cells (CD123 CAR), cultured for 48h with bortezomib, FIG. 1B, read-out: EC50 of Bortezomib (cell depletion / viability)), roughly 10 nM; with MOLM13 cell line, roughly 10 nM. Moreover, the “EC50 of bortezomib, change” value in assay [2] (CART cells as compared to non-transduced cells, 48h, FIG. 4) is reported as “increased”; in assay [3], “increased”; in assay [4], “increased”.
